Test results published in patent publication US7122668B2, “Platinum complexes and their use in therapy” (priority 2002, dated 2006).
Read-outs that look alike come from different tables or passages of the source.

What was measured:
C-26 cells [1] = assay type: cell-based; details: C-26 cells, mean ± SD
Description: (§1) A human ovarian carcinoma cell line (OV-1063), established at the Hadassah University hospital and human colon carcinoma cell line (C-26) were maintained in RPMI-1640 medium supplemented with 10% FCS, antibiotics and glutamine. All culture medium components were purchased from Biological Industries (Beit-HaEmek, Israel). Both cell lines were maintained at 37° C. in a water-jacketed CO2 incubator.
(§2) Cytotoxicity of the synthesized complexes was tested by the methylene blue (MB) staining assay^(19). A fixed number of exponentially growing cells in 200 μl medium were plated in 96-microwell, flat-bottomed plates. For each of the complexes tested, 4 well were used. Following 24 hr in culture, 20 μl of different concentration of the complexes were added to each well containing untreated cells. Normal saline was added to the controls. Cells were exposed to complexes for 4, 24, or 72 hr. At the end of exposure for a fixed time interval, the treated cells as well as parallel control cells were washed and incubation was continued in fresh medium until termination of the experiment. Following 72 hr of growth, cells were fixed by adding 50 μl of 2.5% of glutaraldehyde to each well for 15 min. Fixed cells were rinsed 10 times with fresh de-ionized water and once with borate buffer (0.1 M, pH=8.5), dried and stained with MB (100 μl of 1% solution in 0.1 M borate buffer, pH=8.5) for 1 hr at room temperature. Stained cells were rinsed thoroughly with de-ionized water to remove any non-cell-bound die and then dried. The MB bound to the fixed cells was extracted by incubation at 37° C. with 200 μl of 0.1N HCl for 1 hr, and the net optical density (OD) of the die in each well was determined by a plate spectrophotometer (Labsystems Multyskan BICHROMATIC, Finland) at 620 nm.

OV-1063 cells [2] = experiment: Methylene blue (MB) assay of cell survival; assay type: cell-based, human; details: mean ± SD
Description: as §1, §2

41McisR = experiment: Microculture tetrazolium (MTS) cell survival assay; assay type: cell-based; details: for resistance factor (IC50 resistant/IC50 sensitive): 41McisR/41M; for IC50: 24 hours incubation, MTS
Description: (§3) Cytotoxicity of the synthesized complexes was also tested by the MTS method^(21). Accordingly, the compounds were incubated for 24 hours with the corresponding cell lines and the cell survival in compound-treated cultures was evaluated.
(§4) The complexes were incubated for 24 hours with the above mentioned cell lines and the cell survival in compound-treated cultures was evaluated by the (microculture tetrazolium) MTS method as previously reported.

41M = experiment: Microculture tetrazolium (MTS) cell survival assay; assay type: cell-based; details: 24 hours incubation
Description: as §3, §4

A2780cisR = experiment: Microculture tetrazolium (MTS) cell survival assay; assay type: cell-based; details: for IC50: 24 hours incubation, MTS; for resistance factor (IC50 resistant/IC50 sensitive): A2780cisR/A2780
Description: as §3, §4

A2780 = experiment: Microculture tetrazolium (MTS) cell survival assay; assay type: cell-based; details: 24 hours incubation
Description: as §3, §4

CH1cisR = experiment: Microculture tetrazolium (MTS) cell survival assay; assay type: cell-based; details: for IC50: 24 hours incubation, MTS; for resistance factor (IC50 resistant/IC50 sensitive): CH1cisR/CH1
Description: as §3, §4

CH1 = experiment: Microculture tetrazolium (MTS) cell survival assay; assay type: cell-based; details: 24 hours incubation
Description: as §3, §4

C-26 cells [3] = experiment: Platinum complex intracellular accumulation (FAAS); assay type: cell-based, human; details: C-26, 24 hr
Description: (§5) Cells were seeded for 48 hr before one of the complexes was added to the culture medium. After 24 hr of exposure, the complexes were removed and the cells washed twice with ice-cold PBS and pelleted. The cells (1*10^6) were dried and mineralized by heating for 10 min in 65% HNO3 (BDH, England)^(22). Samples were dissolved in de-ionized water and each sample was measured at two different dilutions by flameless Zeeman atomic absorption spectrometer (FAAS). The calibration curves included 5 standards of K2PtCl4 stock solution with concentrations ranging from 50 to 250 ng platinum per ml. Platinum content was expressed as picomoles platinum per 1*10^6 cells.
(§6) The Pt content associated with the cells was measured by Atomic Absorption Spectroscopy (AAS).

OV-1063 cells [4] = experiment: Platinum complex intracellular accumulation (FAAS); assay type: cell-based, human; details: OV-1063, 24 hr
Description: as §5, §6

C-26 cells [5] = experiment: Determination of Pt-DNA adducts by FAAS; assay type: cell-based, human; details: for Pt-DNA adducts: C-26, 24 hr
Description: (§7) Cells were seeded for 48 hr before one of the drugs was added to the culture medium. After 24 hr of exposure, the complexes were removed and the cells washed twice with ice-cold PBS and pelleted. DNA from platinum-containing material (2*10^6 cells) was extracted from the cell pellet by QIAamp DNA Blood Kit (QIAGEN, Germany) according to the manufacture instructions. DNA yield was determined by measuring the concentration of DNA in the eluate by absorbance at 260 nm.

OV-1063 cells [6] = experiment: Determination of Pt-DNA adducts by FAAS; assay type: cell-based, human; details: for Pt-DNA adducts: OV-1063, 24 hr
Description: as §7

calf thymus DNA = experiment: DNA binding (calf thymus DNA platination); details: for t1/2 half time of the binding to calf thymus DNA: 10 mM NaClO4, 37° C., ri = 0.08, differential pulse polarography; for ΔΔεmax, maximum of the positive CD band at around 275 nm: difference between control and platinated DNA
Description: The formation of calf thymus DNA platination was also examined. To this end, calf thymus DNA was incubated with different compounds (Table 3) in which the following parameters were determined: […]

caspase-3 in C-26 cells = experiment: EnzChek Caspase-3 assay; assay type: cell-based, human; details: 4.5 μM complex, cisplatin 1.5 μM, 5 or 16 hrs
From the text: (§8) (2) By the EnzChektm Caspase-3 Assay Kit (Molecular probes, Eugene, Oreg.). This Kit allows the detection of apoptosis by assaying for increases in caspase-3 and other DEVD-specific protease activities (e.g., caspase-7). The basis for the assay is rodamine 110 bis-(N-CBZ-aspartil-L-glutarnyl-L-valyl-aspartic acid amide) (Z-DEVD-R110). This substrate is a bisamide derivative of rhodamine 110(R110) containing DEVD peptides covalently linked to each of R110's amino groups. Upon enzymatic cleavage, the non-fluorescent bisamide substrate converted to the fluorescent R110, which can be quantified by fluorescence microplate reader using excitation at 485±10 nm and emission detection at 535±10 nm.
(§9) (12) (5 μM and 7.5 μM, respectively) for 5 or 16 hr. Both “induced” and “control” cells were then harvested and lysed. Enzyme reactions were performed in 96-well plates with 50 μg of cytosolic proteins (55 minutes of incubation) and with a final concentration of 25 μM Z-DEVD-R110 substrate as described in the kit protocol.

[7] = system: caspase-3 in OV-1063 cells; experiment: EnzChek Caspase-3 assay; assay type: cell-based, human
From the text: as §8, §9

C-26 colon carcinoma = experiment: In vivo antitumor efficacy; set-up: species or system BALB/C mice; details: 5 mg/kg, three injections at weekly intervals from day 3 after i.p. tumor inoculation
Description: Female BALB/C mice (in the weight range of 17–20 g) were injected i.p. with 1*10^6 C-26 colon carcinomas.
Treatment began at day 3 after tumor inoculation and was repeated twice for a total of three injections at weekly intervals.
Female BALB/C mice (in the weight range of 17–20 gr) were injected i.p. with 1*10^6 C-26 colon carcinomas.
Treatment was as performed according to the schedule described above.

[8] = system: Ubiquitin and Heart Myoglobin; details: 1:1 reaction, 1–2 mM, 10 mM phosphate buffer, pH 6.4, 37° C.
Description: Since most platinum(II) derivatives which are administered intravenously become protein bound within 24 hr, the binding kinetics of two model proteins, Ubiquitin (MW 8565) and Heart Myoglobin (MW 16951), to Pt complexes was determined. To this end, a 1:1 reaction between the platinum complexes and the proteins were carried out at 1–2 mM concentrations, in 10 mM phosphate buffer, pH 6.4 at 37° C. Protein binding kinetics were measured directly on the reaction mixtures, by Electrospray Ionization Mass Spectrometry (ESI-MS).

plasmid pS16-hGH DNA = experiment: Determination of Pt-DNA adducts by EtBr fluorescence; assay type: binding; details: DNA modified 24 hr
Description: A plasmid (4.8 kbp) containing a gene coding for human growth hormone, plasmid pS16-hGH, was prepared as previously described^(23). The freshly prepared DNA was analyzed by agarose gel (1%) electrophoresis using post-staining with SYBR Green I fluorescent dye (Molecular Probes, Eugene, Oreg.). […] The ratio of absorbance at 260 nm to that at 280 nm was always between 1.8 and 1.9.
DNA were modified by the platinum complexes in 10 mM NaClO4 (pH 7.0) at 37° C. in the dark for 24 hr. Measurements of EtBr fluorescence were performed on an LS50B luminescence spectrometer (Perkin Elmer, Norwalk, Conn.). Fluorescence measurements of DNA modified by platinum in the presence of EtBr were performed using the excitation wavelength of 546 nm (slit 10 run) and emission wavelength of 590 nm (slit 10 nm) at 25° C. The concentrations were 0.01 mg/ml for DNA and 0.04 mg/ml for EtBr, which corresponded to the saturation of all intercalation sites of EtBr in DNA.
EtBr, as the fluorescent probe, was used to distinguish between perturbations induced in DNA by adducts of platinum (II) compounds^(14). Binding of EtBr by intercalation is blocked in a stoichiometric manner by formation of the bifunctional adducts, as of Cis-Pt, which results in a loss of fluorescence intensity. On the other hand, formation of monofunctional adducts results only in a slight decrease of EtBr fluorescence.

In vivo toxicity = experiment: In vivo toxicity; set-up: species or system BALB/C mice; details: 5 mg/kg, i.v., three times at weekly intervals
[9] = cited from earlier work
[10] = 4 h exposure, read-out: IC50, 4 h
[11] = 24 h exposure, read-out: IC50, 24 h
[12] = 72 h exposure, read-out: IC50, 72 h
[13] = listed as trans-[PtCl2(NH3)(pip)]
[14] = rb = 0.05, listed as trans-[PtCl2(NH3)(pip)]

Compound	resistance factor (IC50 resistant/IC50 sensitive) (41McisR)	IC50 (41McisR)	IC50 (41M)	IC50 (A2780cisR)	resistance factor (IC50 resistant/IC50 sensitive) (A2780cisR)	IC50 (A2780)	IC50 (CH1cisR)	resistance factor (IC50 resistant/IC50 sensitive) (CH1cisR)	IC50 (CH1)	Penetration to cells (C-26 cells [3])	Penetration to cells (OV-1063 cells [4])	Pt-DNA adducts (C-26 cells [5])	Pt-DNA adducts (OV-1063 cells [6])	% IEC/adduct, frequency of interstrand crosslinks (calf thymus DNA)	unwinding angle per adduct (calf thymus DNA)	t1/2 half time of the binding to calf thymus DNA (calf thymus DNA)	ΔTm, 0.2 M (calf thymus DNA; rb = 0.05)	ΔΔεmax, maximum of the positive CD band at around 275 nm (calf thymus DNA; rb = 0.05)	Increase in life span (C-26 colon carcinoma)	Survival (C-26 colon carcinoma)	also measured
N.N.[Cl][Pt][Cl] [Cisplatin, cis-[PtCl2(NH3)2], reference compound]	4.1	107 µM	26 µM	38 µM	17.3	2.2 µM	23 µM	3.8	6 µM	2244 pmol Pt/1 * 10^6 cells	194 pmol Pt/1 * 10^6 cells	149 pmol Pt/50 μg DNA	107 pmol Pt/50 μg DNA	6%	13°	100 min	−4.0 0.C	1.27	108%	24 ± 5 days	IC50 (C-26 cells [1]; [10]): 1500 ± 1300 nM; IC50 (C-26 cells [1]; [11]): 600 ± 100 nM; IC50 (C-26 cells [1]; [12]): 200 ± 200 nM; IC50 (OV-1063 cells [2]; [10]): 2000 ± 500 nM; IC50 (OV-1063 cells [2]; [11]): 700 ± 200 nM; IC50 (OV-1063 cells [2]; [12]): 500 ± 200 nM; ΔTm, 0.01M Na+ (calf thymus DNA; rb = 0.05, 0.01M Na+): −2.6 0.C; caspase-3 fluorescent signal (caspase-3 in C-26 cells): No fluorescent signal; caspase-3 fluorescent signal ([7]; cisplatin 2 μM, 5 or 16 hrs): No fluorescent signal
C1CCNCC1.N.[Cl][Pt][Cl] [Complex 1, Trans-[PtCl2(NH3)(piperidine)]]																					% IEC/adduct, frequency of interstrand crosslinks (calf thymus DNA; [13]): 26%; unwinding angle per adduct (calf thymus DNA; [13]): 52.8°; ΔTm, 0.01M Na+ (calf thymus DNA; rb = 0.05, 0.01M Na+, listed as trans-[PtCl2(NH3)(pip)]): +7.6 0.C; ΔTm, 0.2 M (calf thymus DNA; [14]): −1.9 0.C; ΔΔεmax, maximum of the positive CD band at around 275 nm (calf thymus DNA; [14]): 0.15; binding to the proteins [8]: binds rapidly
C1CCN(C2CCNCC2)CC1.N.[Cl][Pt][Cl] [Complex 3, Trans-[PtCl2(NH3)(4-piperidino-piperidine)]]																			108%	24 ± 3 days	decrease of EtBr fluorescence intensity by DNA adducts (plasmid pS16-hGH DNA): The best adduct; toxicity (animal weight and survival) (In vivo toxicity): non-toxic
Trans-[PtCl2(4-picoline)(piperazine)].HCl [Complex 13]	3.3	147 ± 10 µM	45 ± 3 µM	24 ± 3 µM	2.4	10 ± 3 µM	42 ± 3 µM	2.6	16 ± 2 µM	54461 pmol Pt/1 * 10^6 cells	12307 pmol Pt/1 * 10^6 cells	297 pmol Pt/50 μg DNA	205 pmol Pt/50 μg DNA	6%	17°	12 min	−3.5 0.C	−0.30			DNA platination relative to Cis-Pt (C-26 cells [5]; C-26 cells): 7 fold; DNA platination relative to Cis-Pt (OV-1063 cells [6]; OV-1063 cells): 7 fold; ΔTm, 0.01M Na+ (calf thymus DNA): +4.7 0.C; decrease of EtBr fluorescence intensity by DNA adducts (plasmid pS16-hGH DNA): considerable decrease in fluorescence; caspase-3 activation, increase in fluorescence vs untreated cells ([7]; 5 hr, 6.5 μM piperidine complex or 7.5 μM piperazine complex): ~2 fold; caspase-3 activation, increase in fluorescence vs untreated cells ([7]; 16 hr): 3 fold
trans-[PtCl(PyAc—N,O)(NH3)]																					solubility in water [9]: 4 to 5 mmol/L
